Measured values from article PMC8286840, “Identifying SARS-CoV-2 antiviral compounds by screening for small molecule inhibitors of Nsp3 papain-like protease” (Biochemical Journal, 2021).
Where a name gives a salt, the structure may show the parent alone. Read-outs that look alike come from different tables or passages of the source.

Columns and labels:
[1] = molecular target: T1, SARS-CoV-2 PLpro (nsp3 1564–1878) (Severe acute respiratory syndrome coronavirus 2, UniProt P0DTD1); experiment: biochemical; parameters: FRET-quenched peptide (Pro3) cleavage by PLpro, 10 min pre-incubation, slope over 20 min, normalised to no-compound control; conditions: low concentration screen, read-out: % of control remaining
[2] = molecular target: T1, SARS-CoV-2 PLpro (nsp3 1564–1878); experiment: biochemical; parameters: FRET-quenched peptide (Pro3) cleavage by PLpro, 10 min pre-incubation, slope over 20 min, normalised to no-compound control; conditions: high concentration screen, read-out: % of control remaining

NC(=O)c1ncn([C@@H]2O[C@H](CO)[C@@H](O)[C@H]2O)c1O [Mizoribine]
remaining activity at 1.25 µM ([1]; Well no.=876): 105% | remaining activity at 3.75 µM ([2]; Well no.=876): 107%

COc1cc2c(c(OC)c1OC)-c1c(cc(OC)c(OC)c1OC)C[C@H](C)[C@H](C)C2 [R(+)-Schisandrin A]
remaining activity at 1.25 µM ([1]; Well no.=3741): 91.7% | remaining activity at 3.75 µM ([2]; Well no.=3741): 93.8%

C/C(=C\c1csc(C)n1)[C@@H]1C[C@@H]2O[C@@H]2CCC[C@H](C)[C@H](O)[C@@H](C)C(=O)C(C)(C)[C@@H](O)CC(=O)O1 [Epothilone A]
remaining activity at 1.25 µM ([1]; Well no.=5157): 95.3% | remaining activity at 3.75 µM ([2]; Well no.=5157): 93.4%

Cc1ccc(F)cc1C(=O)Nc1ccc(C(=O)N2Cc3cccn3Cc3ccccc32)c(Cl)c1 [N-[3-chloro-4-(5H-pyrrolo[2,1-c][1,4]benzodiazepin-10(11H)-ylcarbonyl)phenyl]-5-fluoro-2-methylbenzamide]
remaining activity at 1.25 µM ([1]; Well no.=5601): 103% | remaining activity at 3.75 µM ([2]; Well no.=5601): 107%

NNCc1cccc(O)c1 [3-Hydroxybenzylhydrazine dihydrochloride]
remaining activity at 1.25 µM ([1]; Well no.=568): 104% | remaining activity at 3.75 µM ([2]; Well no.=568): 97.9%

CC(=O)Nc1nnc(S(N)(=O)=O)s1 [Acetazolamide]
remaining activity at 1.25 µM ([1]; Well no.=163): 101% | remaining activity at 3.75 µM ([2]; Well no.=163): 103%

COc1cc(Br)c(S(=O)(=O)Nc2ccc(Cl)c(O[C@@H]3CCN(C)C3)c2)cc1OC [2-bromo-N-(4-chloro-3-{[(3R)-1-methyl-3-pyrrolidinyl]oxy}phenyl)-4,5-dimethoxybenzenesulfonamide]
remaining activity at 1.25 µM ([1]; Well no.=5501): 99.8% | remaining activity at 3.75 µM ([2]; Well no.=5501): 105%

O=C1CC2(CCCC2)CC(=O)N1CCCCN1CCN(c2ncccn2)CC1 [Buspirone hydrochloride]
remaining activity at 1.25 µM ([1]; Well no.=319): 98.2% | remaining activity at 3.75 µM ([2]; Well no.=319): 99.4%

CC(C)c1cc2c(c(O)c1O)[C@@]1(C(=O)O)CCCC(C)(C)[C@@H]1CC2 [Carnosic acid]
remaining activity at 1.25 µM ([1]; Well no.=4038): 101% | remaining activity at 3.75 µM ([2]; Well no.=4038): 104%

CN1CCN(CCCN2c3ccccc3Sc3ccc(C(F)(F)F)cc32)CC1 [Trifluoperazine dihydrochloride]
remaining activity at 1.25 µM ([1]; Well no.=1326): 101% | remaining activity at 3.75 µM ([2]; Well no.=1326): 100%

CCC(=O)N1CCN(C(=O)c2ccccc2)CC1 [DM 235]
remaining activity at 1.25 µM ([1]; Well no.=453): 96.3% | remaining activity at 3.75 µM ([2]; Well no.=453): 96%

COc1cc(C=O)ccc1O [Vanillin]
remaining activity at 1.25 µM ([1]; Well no.=7455): 103% | remaining activity at 3.75 µM ([2]; Well no.=7455): 106%

CC(C)N(CCC(C(N)=O)(c1ccccc1)c1ccccn1)C(C)C (stereo not shown) [Disopyramide phosphate]
remaining activity at 1.25 µM ([1]; Well no.=436): 97.6% | remaining activity at 3.75 µM ([2]; Well no.=436): 98.8%

Nc1nc(OCc2cc(Br)cs2)c2[nH]cnc2n1 [Lomeguatrib]
remaining activity at 1.25 µM ([1]; Well no.=5885): 105% | remaining activity at 3.75 µM ([2]; Well no.=5885): 105%

COc1cc2ncnc(Nc3cccc(Br)c3)c2cc1OC [PD153035 HCl]
remaining activity at 1.25 µM ([1]; Well no.=4627): 104% | remaining activity at 3.75 µM ([2]; Well no.=4627): 105%

CC[C@H](c1ccc(O)cc1)[C@@H](CC)c1ccc(O)cc1 [Hexestrol]
remaining activity at 1.25 µM ([1]; Well no.=2182): 99.9% | remaining activity at 3.75 µM ([2]; Well no.=2182): 100%

C[N+]1(C)[C@@H]2C[C@@H](OC(=O)C(O)(c3cccs3)c3cccs3)C[C@H]1[C@@H]1O[C@@H]12 [Tiotropium Bromide]
remaining activity at 1.25 µM ([1]; Well no.=2108): 102% | remaining activity at 3.75 µM ([2]; Well no.=2108): 102%

COc1ccc(Cl)cc1C(=O)NCCc1ccc(S(=O)(=O)NC(=O)NC2CCCCC2)cc1 [Glibenclamide]
remaining activity at 1.25 µM ([1]; Well no.=475): 101% | remaining activity at 3.75 µM ([2]; Well no.=475): 102%

OCCOCCN1CCN(C(c2ccccc2)c2ccc(Cl)cc2)CC1 (stereo not shown) [Hydroxyzine (dihydrochloride)]
remaining activity at 1.25 µM ([1]; Well no.=6901): 100% | remaining activity at 3.75 µM ([2]; Well no.=6901): 98%

C[n+]1cc2c3c(ccc2c2ccc4cc5c(cc4c21)OCO5)OCO3 [Sanguinarine chloride]
remaining activity at 1.25 µM ([1]; Well no.=1458): 87.2% | remaining activity at 3.75 µM ([2]; Well no.=1458): 86.2%

Cc1ncc(COP(=O)(O)O)c(C=O)c1O [Pyridoxal phosphate]
remaining activity at 1.25 µM ([1]; Well no.=6389): 103% | remaining activity at 3.75 µM ([2]; Well no.=6389): 101%

CC(=O)Nc1ccc(C(=O)Nc2ccccc2N)cc1 [CI994 (Tacedinaline)]
remaining activity at 1.25 µM ([1]; Well no.=5165): 103% | remaining activity at 3.75 µM ([2]; Well no.=5165): 101%

O=S(=O)(NCc1ccccn1)c1ccc(Br)c2ccccc12 [Pyrabactin]
remaining activity at 1.25 µM ([1]; Well no.=5918): 96.4% | remaining activity at 3.75 µM ([2]; Well no.=5918): 95.8%

OC[C@H]1O[C@@H](Oc2cc(O)cc(/C=C/c3ccc(O[C@@H]4O[C@H](CO)[C@@H](O)[C@H](O)[C@H]4O)cc3O)c2)[C@H](O)[C@@H](O)[C@@H]1O [Mulberroside A]
remaining activity at 1.25 µM ([1]; Well no.=6340): 93% | remaining activity at 3.75 µM ([2]; Well no.=6340): 90.9%

O=C1C[C@@H](c2ccc(O)c(O)c2)Oc2cc(O)cc(O)c21 [Eriodictyol]
remaining activity at 1.25 µM ([1]; Well no.=3259): 104% | remaining activity at 3.75 µM ([2]; Well no.=3259): 103%

OCc1c[nH]c2ccccc12 [Indole-3-carbinol]
remaining activity at 1.25 µM ([1]; Well no.=3524): 102% | remaining activity at 3.75 µM ([2]; Well no.=3524): 102%

CC(=O)NCCCCCN [N-(5-Aminopentyl)acetamide]
remaining activity at 1.25 µM ([1]; Well no.=6155): 98.4% | remaining activity at 3.75 µM ([2]; Well no.=6155): 89.4%

O=C(O)COCCN1CCN(C(c2ccccc2)c2ccc(Cl)cc2)CC1 (stereo not shown) [Cetirizine (dihydrochloride)]
remaining activity at 1.25 µM ([1]; Well no.=7325): 104% | remaining activity at 3.75 µM ([2]; Well no.=7325): 103%

c1ccc(CN(CC2=NCCN2)c2ccccc2)cc1 [Antazoline (hydrochloride)]
remaining activity at 1.25 µM ([1]; Well no.=7425): 112% | remaining activity at 3.75 µM ([2]; Well no.=7425): 102%

O=C(O)CCC(=O)c1ccc(-c2ccccc2)cc1 [Fenbufen]
remaining activity at 1.25 µM ([1]; Well no.=2078): 100% | remaining activity at 3.75 µM ([2]; Well no.=2078): 102%

CC(C)CN(C[C@@H](O)[C@H](Cc1ccccc1)NC(=O)O[C@H]1CO[C@H]2OCC[C@H]21)S(=O)(=O)c1ccc(N)cc1 [Darunavir]
remaining activity at 1.25 µM ([1]; Well no.=7318): 108% | remaining activity at 3.75 µM ([2]; Well no.=7318): 108%

CCOC(=O)[C@H](Cc1ccc([N+](=O)[O-])cc1)NC(=O)c1ccccc1 [SB297006]
remaining activity at 1.25 µM ([1]; Well no.=8132): 103% | remaining activity at 3.75 µM ([2]; Well no.=8132): 97.6% | remaining activity at 3.75 µM ([2]; Well no.=8211): 102%

O=C(O)c1cc(N(Cc2ccccc2O)Cc2cc(O)ccc2O)ccc1O [Lavendustin A]
remaining activity at 1.25 µM ([1]; Well no.=3837): 90.9% | remaining activity at 3.75 µM ([2]; Well no.=3837): 94.6%

O=C1c2cc([N+](=O)[O-])ccc2-n2c1nc1ccccc1c2=O [GNF-PF-3777]
remaining activity at 1.25 µM ([1]; Well no.=8414): 88.1% | remaining activity at 1.25 µM ([1]; Well no.=8695): 103% | remaining activity at 3.75 µM ([2]; Well no.=8414): 78.5% | remaining activity at 3.75 µM ([2]; Well no.=8695): 99%

CC(C)(C)c1cc(/C=C(\C#N)C(N)=S)cc(C(C)(C)C)c1O [Tyrphostin AG 879]
remaining activity at 1.25 µM ([1]; Well no.=1427): 95.8% | remaining activity at 3.75 µM ([2]; Well no.=1427): 85.7%
